Columns and labels:
CYP1A2 = biological target: T1, CYP1A2 (Homo sapiens, UniProt P05177); test: Inhibition of human recombinant CYP1A2 expressed in baculovirus-infected insect microsomes at 2 uM; type: ADME, Microsome
T1 sequence (P05177 whole entry): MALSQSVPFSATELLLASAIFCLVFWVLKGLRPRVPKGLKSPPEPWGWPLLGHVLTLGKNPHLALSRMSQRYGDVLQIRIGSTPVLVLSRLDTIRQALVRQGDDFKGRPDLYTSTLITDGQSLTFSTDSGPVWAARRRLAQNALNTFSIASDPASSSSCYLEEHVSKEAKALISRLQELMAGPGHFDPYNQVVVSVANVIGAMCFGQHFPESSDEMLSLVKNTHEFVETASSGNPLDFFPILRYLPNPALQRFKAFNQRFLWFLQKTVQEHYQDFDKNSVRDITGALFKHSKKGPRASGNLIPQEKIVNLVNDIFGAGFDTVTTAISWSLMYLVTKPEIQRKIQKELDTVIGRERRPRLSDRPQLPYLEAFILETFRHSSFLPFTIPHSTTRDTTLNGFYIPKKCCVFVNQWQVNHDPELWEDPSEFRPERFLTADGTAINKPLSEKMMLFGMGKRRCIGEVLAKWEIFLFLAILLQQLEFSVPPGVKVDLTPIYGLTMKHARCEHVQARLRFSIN

Cytochrome P450 2B6 = biological target: T2, Cytochrome P450 2B6 (Homo sapiens, UniProt P20813); test: Inhibition of human recombinant CYP2B6 expressed in baculovirus-infected insect microsomes; type: ADME, Microsome
T2 sequence (P20813 whole entry): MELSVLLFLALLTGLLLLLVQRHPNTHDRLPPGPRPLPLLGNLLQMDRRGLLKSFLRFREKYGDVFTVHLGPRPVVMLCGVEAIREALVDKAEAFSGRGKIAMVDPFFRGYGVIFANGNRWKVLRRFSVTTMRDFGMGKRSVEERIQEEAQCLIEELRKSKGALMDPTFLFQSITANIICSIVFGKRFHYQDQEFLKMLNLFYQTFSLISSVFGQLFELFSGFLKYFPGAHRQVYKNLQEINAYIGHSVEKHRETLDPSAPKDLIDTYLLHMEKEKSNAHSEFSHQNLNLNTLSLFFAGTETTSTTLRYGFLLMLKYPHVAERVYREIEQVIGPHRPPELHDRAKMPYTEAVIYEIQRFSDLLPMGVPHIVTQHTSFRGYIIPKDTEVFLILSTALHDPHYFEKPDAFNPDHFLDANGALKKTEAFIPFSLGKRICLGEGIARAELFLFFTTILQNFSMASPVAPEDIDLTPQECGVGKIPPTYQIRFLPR

Cytochrome P450 2C9 = Cytochrome P450 2C9 (Homo sapiens, UniProt P11712); test: Inhibition of human recombinant CYP2C9 expressed in baculovirus-infected insect microsomes; type: ADME, Microsome
Cytochrome P450 2C19 = Cytochrome P450 2C19 (Homo sapiens, UniProt P33261); test: Inhibition of human recombinant CYP2C19 expressed in baculovirus-infected insect microsomes; type: ADME, Microsome; conditions: read-out: IC50
[1] = Protein binding in rat plasma at 3 uM after 1 hr; type: ADME, cell-free; conditions: read-out: PPB (converted)
[2] = Protein binding in human plasma at 3 uM after 1 hr; type: ADME, cell-free; conditions: read-out: PPB (converted)
[3] = Terminal half life in Wistar rat at 5 mg/kg, po by cassette dosing; type: ADME, organism-based; design: dose 5 mg/kg, route oral; conditions: in vivo, read-out: beta t1/2 (converted)
[4] = Tmax in Wistar rat at 5 mg/kg, po by cassette dosing; type: ADME, organism-based; design: dose 5 mg/kg, route oral; conditions: in vivo
[5] = Cmax in Wistar rat at 5 mg/kg, po by cassette dosing; type: ADME, organism-based; design: dose 5 mg/kg, route oral; conditions: in vivo
[6] = AUC (0 to infinity) in Wistar rat at 5 mg/kg, po by cassette dosing; type: ADME, organism-based; design: time infinity, dose 5 mg/kg, route oral; conditions: plasma
Cytochrome P450 1A2 = biological target: T3, Cytochrome P450 1A2 (Homo sapiens, UniProt P05177)
T3 sequence (P05177 whole entry): T1 sequence (P05177 whole entry)

CYP19 (aromatase) = biological target: T4, CYP19 (aromatase) (Homo sapiens, UniProt P11511); test: Inhibition of human placental CYP19 at 500 nM; type: functional
T4 sequence (P11511 whole entry): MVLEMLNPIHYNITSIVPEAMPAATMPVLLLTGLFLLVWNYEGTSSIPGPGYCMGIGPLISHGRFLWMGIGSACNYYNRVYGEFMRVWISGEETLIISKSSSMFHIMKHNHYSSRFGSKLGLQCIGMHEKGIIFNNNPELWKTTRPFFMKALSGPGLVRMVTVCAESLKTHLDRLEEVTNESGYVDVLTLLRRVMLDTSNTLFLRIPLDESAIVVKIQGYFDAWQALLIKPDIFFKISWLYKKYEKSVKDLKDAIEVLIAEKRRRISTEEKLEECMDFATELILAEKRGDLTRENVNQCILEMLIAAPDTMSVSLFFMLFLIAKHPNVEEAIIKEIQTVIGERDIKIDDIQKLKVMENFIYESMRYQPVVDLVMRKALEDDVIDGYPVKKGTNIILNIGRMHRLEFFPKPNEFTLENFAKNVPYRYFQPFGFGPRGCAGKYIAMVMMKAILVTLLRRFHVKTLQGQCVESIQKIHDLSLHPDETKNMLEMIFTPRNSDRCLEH

Cytochrome P450 2D6 = Cytochrome P450 2D6 (Homo sapiens, UniProt P10635); test: Inhibition of human recombinant CYP2D6 expressed in baculovirus-infected insect microsomes; type: ADME, Microsome
Cytochrome P450 3A4 = Cytochrome P450 3A4 (Homo sapiens, UniProt P08684); test: Inhibition of human recombinant CYP3A4 expressed in baculovirus-infected insect microsomes; type: ADME, Microsome
[7] = Terminal half life in Wistar rat at 25 mg/kg, po; type: ADME, organism-based; design: dose 25 mg/kg, route oral; conditions: in vivo, read-out: beta t1/2 (converted)
[8] = Terminal half life in Wistar rat at 1 mg/kg, iv; type: ADME, organism-based; design: dose 1 mg/kg, route intravenous; conditions: in vivo, read-out: beta t1/2 (converted)
[9] = Tmax in Wistar rat at 25 mg/kg, po; type: ADME, organism-based; design: dose 25 mg/kg, route oral; conditions: in vivo
[10] = Cmax in Wistar rat at 25 mg/kg, po; type: ADME, organism-based; design: dose 25 mg/kg, route oral; conditions: in vivo
[11] = AUC (0 to infinity) in Wistar rat at 25 mg/kg, po; type: ADME, organism-based; design: time infinity, dose 25 mg/kg, route oral; conditions: plasma
[12] = AUC (0 to infinity) in Wistar rat at 1 mg/kg, iv; type: ADME, organism-based; design: time infinity, dose 1 mg/kg, route intravenous; conditions: plasma
CYP17 = biological target: T5, CYP17 (Homo sapiens, UniProt P05093); test: in vitro; conditions: human CYP17 expressed in Escherichia coli
T5 sequence (P05093 whole entry): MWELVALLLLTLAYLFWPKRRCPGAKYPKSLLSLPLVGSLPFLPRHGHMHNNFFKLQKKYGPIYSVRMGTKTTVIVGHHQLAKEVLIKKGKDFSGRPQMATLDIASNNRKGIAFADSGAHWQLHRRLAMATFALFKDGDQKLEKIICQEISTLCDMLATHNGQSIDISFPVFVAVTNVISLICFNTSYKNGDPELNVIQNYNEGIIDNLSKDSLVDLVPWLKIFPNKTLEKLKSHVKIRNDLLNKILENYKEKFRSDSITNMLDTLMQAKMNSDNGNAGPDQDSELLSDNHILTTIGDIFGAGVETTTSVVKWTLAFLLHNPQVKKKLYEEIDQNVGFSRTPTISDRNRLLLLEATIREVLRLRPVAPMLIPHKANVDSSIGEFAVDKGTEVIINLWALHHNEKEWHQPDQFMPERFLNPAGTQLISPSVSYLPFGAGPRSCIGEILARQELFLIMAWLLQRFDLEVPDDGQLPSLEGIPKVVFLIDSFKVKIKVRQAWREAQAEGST
Description: Inhibition of human CYP17 expressed in Escherichia coli at 2.5 uM

[13] = Oral bioavailability in Wistar rat at 25 mg/kg; conditions: in vivo
[14] = biological target: T6, Cytochrome P450 11B2, mitochondrial (Homo sapiens, UniProt P19099)
T6 sequence (P19099 whole entry): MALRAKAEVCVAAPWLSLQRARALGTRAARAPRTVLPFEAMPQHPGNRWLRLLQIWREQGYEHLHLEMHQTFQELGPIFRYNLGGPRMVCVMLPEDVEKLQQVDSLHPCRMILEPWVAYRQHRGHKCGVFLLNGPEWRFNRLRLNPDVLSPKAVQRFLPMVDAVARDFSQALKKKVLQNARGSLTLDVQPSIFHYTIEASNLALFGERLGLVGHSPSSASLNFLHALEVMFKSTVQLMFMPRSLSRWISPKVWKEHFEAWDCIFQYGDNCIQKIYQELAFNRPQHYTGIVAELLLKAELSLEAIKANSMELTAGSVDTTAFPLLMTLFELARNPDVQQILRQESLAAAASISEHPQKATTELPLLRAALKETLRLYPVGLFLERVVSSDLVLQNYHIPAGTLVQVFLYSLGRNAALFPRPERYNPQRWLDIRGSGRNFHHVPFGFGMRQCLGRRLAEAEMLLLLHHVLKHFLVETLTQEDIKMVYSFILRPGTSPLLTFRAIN

[15] = biological target: T7, Cytochrome P450 11B1, mitochondrial (Homo sapiens, UniProt P15538)
T7 sequence (P15538 whole entry): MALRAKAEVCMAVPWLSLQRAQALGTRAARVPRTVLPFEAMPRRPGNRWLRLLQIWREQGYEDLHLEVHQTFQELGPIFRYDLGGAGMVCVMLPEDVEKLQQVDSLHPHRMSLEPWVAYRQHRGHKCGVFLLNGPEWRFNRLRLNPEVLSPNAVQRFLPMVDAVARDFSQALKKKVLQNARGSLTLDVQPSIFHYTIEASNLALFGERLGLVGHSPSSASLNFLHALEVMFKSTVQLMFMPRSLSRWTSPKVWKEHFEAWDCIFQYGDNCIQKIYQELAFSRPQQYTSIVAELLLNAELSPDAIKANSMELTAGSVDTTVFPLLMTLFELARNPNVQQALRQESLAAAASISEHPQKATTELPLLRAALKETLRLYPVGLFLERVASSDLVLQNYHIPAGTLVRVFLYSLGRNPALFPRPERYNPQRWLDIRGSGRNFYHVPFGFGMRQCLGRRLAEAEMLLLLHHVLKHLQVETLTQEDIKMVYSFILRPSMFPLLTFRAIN

Aromatase = biological target: T8, Aromatase (Homo sapiens, UniProt P11511); test: Inhibition of human placental CYP19; type: functional
T8 sequence (P11511 whole entry): T4 sequence (P11511 whole entry)

Sequence of Cytochrome P450 2C9 (P11712 whole entry): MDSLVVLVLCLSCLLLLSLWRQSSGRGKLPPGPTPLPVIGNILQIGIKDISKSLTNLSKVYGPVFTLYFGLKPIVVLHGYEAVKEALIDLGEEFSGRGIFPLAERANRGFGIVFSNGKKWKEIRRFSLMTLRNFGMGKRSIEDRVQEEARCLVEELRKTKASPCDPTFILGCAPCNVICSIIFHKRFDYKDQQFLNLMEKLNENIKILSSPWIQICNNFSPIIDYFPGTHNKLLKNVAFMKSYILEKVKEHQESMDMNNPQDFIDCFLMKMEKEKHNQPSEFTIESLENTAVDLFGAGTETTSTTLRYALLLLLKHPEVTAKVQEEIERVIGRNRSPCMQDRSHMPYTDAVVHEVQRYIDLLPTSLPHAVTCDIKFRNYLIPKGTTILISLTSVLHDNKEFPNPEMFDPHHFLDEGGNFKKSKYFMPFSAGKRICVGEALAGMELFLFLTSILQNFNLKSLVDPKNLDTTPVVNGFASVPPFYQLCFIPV
Sequence of Cytochrome P450 2D6 (P10635 whole entry): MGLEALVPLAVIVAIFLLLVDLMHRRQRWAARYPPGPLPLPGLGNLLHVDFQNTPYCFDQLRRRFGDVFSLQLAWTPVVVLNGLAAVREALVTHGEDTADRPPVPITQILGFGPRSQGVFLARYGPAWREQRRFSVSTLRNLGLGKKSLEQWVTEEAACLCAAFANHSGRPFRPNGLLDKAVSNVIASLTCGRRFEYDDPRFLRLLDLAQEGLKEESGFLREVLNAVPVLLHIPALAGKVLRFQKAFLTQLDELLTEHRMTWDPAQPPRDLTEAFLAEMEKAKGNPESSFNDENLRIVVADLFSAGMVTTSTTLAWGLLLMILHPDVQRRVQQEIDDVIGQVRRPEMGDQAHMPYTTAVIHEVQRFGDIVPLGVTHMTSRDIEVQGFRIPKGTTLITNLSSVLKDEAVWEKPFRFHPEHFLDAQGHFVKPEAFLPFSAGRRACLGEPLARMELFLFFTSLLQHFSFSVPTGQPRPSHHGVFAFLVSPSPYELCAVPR
Sequence of Cytochrome P450 2C19 (P33261 whole entry): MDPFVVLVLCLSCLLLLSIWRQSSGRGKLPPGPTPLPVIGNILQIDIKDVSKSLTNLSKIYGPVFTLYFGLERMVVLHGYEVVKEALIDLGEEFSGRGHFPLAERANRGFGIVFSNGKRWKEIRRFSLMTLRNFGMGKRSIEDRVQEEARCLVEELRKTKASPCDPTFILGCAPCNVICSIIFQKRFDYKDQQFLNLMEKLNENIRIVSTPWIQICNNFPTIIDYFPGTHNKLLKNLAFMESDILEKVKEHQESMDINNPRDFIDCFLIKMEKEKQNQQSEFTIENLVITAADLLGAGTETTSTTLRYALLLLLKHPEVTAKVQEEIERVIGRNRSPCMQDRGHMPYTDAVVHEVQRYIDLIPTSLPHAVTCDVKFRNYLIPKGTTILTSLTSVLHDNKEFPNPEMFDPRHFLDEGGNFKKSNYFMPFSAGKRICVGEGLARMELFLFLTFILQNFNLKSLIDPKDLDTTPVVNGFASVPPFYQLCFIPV
Sequence of Cytochrome P450 3A4 (P08684 whole entry): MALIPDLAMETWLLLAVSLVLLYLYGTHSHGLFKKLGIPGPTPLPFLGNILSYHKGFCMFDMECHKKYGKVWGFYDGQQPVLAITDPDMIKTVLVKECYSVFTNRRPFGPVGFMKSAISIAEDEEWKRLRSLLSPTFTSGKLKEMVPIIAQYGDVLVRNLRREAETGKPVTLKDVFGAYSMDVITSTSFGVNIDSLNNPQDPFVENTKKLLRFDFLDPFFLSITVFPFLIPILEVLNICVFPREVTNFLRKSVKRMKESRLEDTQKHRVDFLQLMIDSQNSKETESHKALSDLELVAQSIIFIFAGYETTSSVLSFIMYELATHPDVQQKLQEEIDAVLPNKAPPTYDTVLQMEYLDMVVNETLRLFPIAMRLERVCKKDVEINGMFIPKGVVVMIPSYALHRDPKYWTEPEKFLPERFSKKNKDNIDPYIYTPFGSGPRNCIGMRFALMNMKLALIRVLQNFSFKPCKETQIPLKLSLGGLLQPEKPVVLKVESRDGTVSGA

| Compound | inhibition at 2 µM (CYP1A2) [%] | IC50 (Cytochrome P450 2B6) [µM] | IC50 (Cytochrome P450 2C9) [µM] | IC50 (Cytochrome P450 2C19) [µM] | fraction unbound at 1 h, 3 µM [1] | fraction unbound at 1 h, 3 µM [2] | half-life [3] [h] | Tmax [4] [h] | Cmax [5] [ng/mL] | AUC(0-inf) [6] [ng·h/mL] | IC50 (Cytochrome P450 1A2) [µM] | inhibition at 0.5 µM (CYP19 (aromatase)) [%] | inhibition at 2.5 µM (CYP17) [%] | IC50 (Aromatase) [µM] | other results |
| --- | --- | --- | --- | --- | --- | --- | --- | --- | --- | --- | --- | --- | --- | --- | --- |
| O=C1CCc2cc(-c3cccnc3)ccc21 | 57 | < 50 | 123 | 147 | 0.76 | 0.78 | 2.4 | 4 | 300 | 3180 | 1.55 | – | – | – | – |
| O=C1CCc2cc(-c3cccnc3)ccc2N1 | 50 | < 50 | 58.9 | – | 0.4 | 0.39 | 3.8 | 4 | 261 | 1750 | 1.95 | 21 | 41 | – | IC50 (Cytochrome P450 2D6; read-out: IC50): 171 µM; IC50 (Cytochrome P450 3A4): 127 µM; half-life [7]: 1.2 h; half-life [8]: 1.7 h; Tmax [9]: 1 h; Cmax [10]: 1540 ng/mL; AUC(0-inf) [11]: 4760 ng·h/mL; AUC(0-inf) [12]: 270 ng·h/mL; bioavailability [13]: 71% |
| CN1C(=O)CCc2cc(-c3cccnc3)ccc21 | 53 | < 50 | 125 | 122 | – | – | 2.3 | 6 | 86 | 659 | 1.79 | 54 | 8 | – | IC50 (Cytochrome P450 2D6): < 200 µM; IC50 [14]: 0.0026 µM; IC50 [15]: 0.742 µM |
| N#Cc1ccc2cc(-c3cccnc3)ccc2c1 | – | – | – | – | – | – | – | – | – | – | – | – | 73 | > 36 | – |
| COc1ccc2cc(-c3cccnc3)ccc2c1 | – | – | – | – | – | – | – | – | – | – | – | – | 72 | 0.6 | – |

From ChEMBL document CHEMBL1151717, “In vivo active aldosterone synthase inhibitors with improved selectivity: lead optimization providing a series of pyridine substituted 3,4-dihydro-1H-quinolin-2-one derivatives” (J Med Chem, 2008)
